Tests used:
PI3K = PI3K (Homo sapiens, UniProt P42336); test: Fluorescence polarization assay for PI3K; type: biochemical; conditions: PI3Kα; read-out: PI3Kα IC50;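 further: PI3K kinase reaction on PIP2 with ATP, 30-60 min, product sensed by GST-GRP with red probe in fluorescence polarization (mP), controls without enzyme and at zero time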
prostate line LNCap = test: In vitro cell culture growth assay (MTS), LNCap; type: cell-based, human; conditions: LNCap cells, three days after drug treatment;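 further: viable cell density read by absorbance at 490 nm, growth expressed as percent of vehicle-treated cells on the same plate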
breast line MDA468 = test: In vitro cell culture growth assay (MTS), MDA468; type: cell-based, human; conditions: MDA468 cells, three days after drug treatment
How it was run: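 Steps: plate cells; add inhibitors the next day; incubate 3 days; add MTS dye, which viable cells convert metabolically; measure absorbance at 490 nm; calculate percent of control growth relative to vehicle-treated cells in the same plate.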

Chain of PI3K (P42336 whole entry): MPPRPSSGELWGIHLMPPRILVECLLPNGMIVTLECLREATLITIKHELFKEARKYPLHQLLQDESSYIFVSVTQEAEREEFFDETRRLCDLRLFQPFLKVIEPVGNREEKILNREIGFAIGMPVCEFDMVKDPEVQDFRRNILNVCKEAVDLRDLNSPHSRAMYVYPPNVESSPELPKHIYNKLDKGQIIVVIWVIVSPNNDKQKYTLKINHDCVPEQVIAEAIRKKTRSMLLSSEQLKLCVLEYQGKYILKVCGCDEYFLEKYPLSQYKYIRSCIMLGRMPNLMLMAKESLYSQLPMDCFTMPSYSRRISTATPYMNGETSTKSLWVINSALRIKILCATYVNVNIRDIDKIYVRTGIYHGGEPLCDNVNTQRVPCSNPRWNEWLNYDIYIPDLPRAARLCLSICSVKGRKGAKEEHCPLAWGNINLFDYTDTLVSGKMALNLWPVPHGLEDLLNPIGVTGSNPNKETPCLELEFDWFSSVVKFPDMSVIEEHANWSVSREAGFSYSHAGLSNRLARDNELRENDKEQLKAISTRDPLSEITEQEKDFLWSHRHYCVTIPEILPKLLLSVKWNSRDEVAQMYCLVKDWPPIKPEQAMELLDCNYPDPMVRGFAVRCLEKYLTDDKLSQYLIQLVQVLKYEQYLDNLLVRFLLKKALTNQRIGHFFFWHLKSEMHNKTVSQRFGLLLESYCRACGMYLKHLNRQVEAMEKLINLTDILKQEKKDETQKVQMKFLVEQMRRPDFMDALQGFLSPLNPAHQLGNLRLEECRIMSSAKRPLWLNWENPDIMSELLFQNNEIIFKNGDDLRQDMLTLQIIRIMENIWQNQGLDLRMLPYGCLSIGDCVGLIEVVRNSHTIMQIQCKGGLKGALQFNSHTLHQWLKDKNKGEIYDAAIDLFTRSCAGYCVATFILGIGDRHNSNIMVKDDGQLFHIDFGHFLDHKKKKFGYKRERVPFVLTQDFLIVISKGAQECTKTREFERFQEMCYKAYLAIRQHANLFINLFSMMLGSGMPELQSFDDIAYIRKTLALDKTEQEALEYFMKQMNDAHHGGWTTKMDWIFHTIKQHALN
Chain of PI3K (P27986 whole entry partner): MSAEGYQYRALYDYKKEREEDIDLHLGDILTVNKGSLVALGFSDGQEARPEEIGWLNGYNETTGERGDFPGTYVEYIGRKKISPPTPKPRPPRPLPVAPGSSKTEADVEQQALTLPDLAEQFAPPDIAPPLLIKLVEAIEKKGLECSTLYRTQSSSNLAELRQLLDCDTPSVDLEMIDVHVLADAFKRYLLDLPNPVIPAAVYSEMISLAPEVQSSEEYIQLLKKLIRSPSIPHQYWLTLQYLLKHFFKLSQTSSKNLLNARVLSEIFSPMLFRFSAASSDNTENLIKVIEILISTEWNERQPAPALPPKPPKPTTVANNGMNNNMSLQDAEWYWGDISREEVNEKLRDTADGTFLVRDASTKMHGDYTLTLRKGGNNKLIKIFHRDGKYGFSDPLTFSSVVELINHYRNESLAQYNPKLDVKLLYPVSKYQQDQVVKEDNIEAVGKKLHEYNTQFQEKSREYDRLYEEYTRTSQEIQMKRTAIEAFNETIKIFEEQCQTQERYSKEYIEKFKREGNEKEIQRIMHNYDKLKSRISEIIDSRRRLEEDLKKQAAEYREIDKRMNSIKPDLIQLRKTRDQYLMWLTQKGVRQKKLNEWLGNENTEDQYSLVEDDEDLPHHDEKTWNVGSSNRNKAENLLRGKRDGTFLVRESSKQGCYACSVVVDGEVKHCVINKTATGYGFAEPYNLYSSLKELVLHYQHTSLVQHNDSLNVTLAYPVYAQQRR

| SMILES | IC50 (PI3K) | IC50 (prostate line LNCap) | IC50 (prostate line LNCap; Homo sapiens, LNCaP, 72 h) | IC50 (breast line MDA468) | IC50 (breast line MDA468; Homo sapiens, 72 h) |
| --- | --- | --- | --- | --- | --- |
| CNC(=O)Nc1ccc(-c2nc(N3CCOCC3)c3cnn(C4CCN(Cc5ccc(C)cc5)CC4)c3n2)cc1 [Compound 675, 1-methyl-3-(4-{1-[1-(4-methylbenzyl)piperidin-4-yl]-4-morpholin-4-yl-1H-pyrazolo[3,4-d]pyrimidin-6-yl}phenyl)urea] | 25 nM | < 27 nM | – | 110 nM | – |
| c1ccc(-n2ncc3c(N4CCOCC4)nc(-c4ccc5[nH]ncc5c4)nc32)cc1 [Compound 676, 6-(1H-indazol-5-yl)-4-morpholin-4-yl-1-phenyl-1H-pyrazolo[3,4-d]pyrimidine] | 440 nM | 20000 nM | – | > 60000 nM | – |
| O=C1Cc2cc(-c3nc(N4CCOCC4)c4cnn(-c5ccccc5)c4n3)ccc2N1 [Compound 677, 5-(4-morpholin-4-yl-1-phenyl-1H-pyrazolo[3,4-d]pyrimidin-6-yl)-1,3-dihydro-2H-indol-2-one] | 1030 nM | > 60000 nM | – | > 60000 nM | – |
| Nc1ccc(-c2nc(N3CCOCC3)c3cnn(C4CCN(C(=O)c5cccnc5)CC4)c3n2)nc1 [Compound 679, 6-{4-morpholin-4-yl-1-[1-(pyridin-3-ylcarbonyl)piperidin-4-yl]-1H-pyrazolo[3,4-d]pyrimidin-6-yl}pyridin-3-amine] | 4040 nM | 45000 nM | – | > 60000 nM | – |
| Nc1ccnc(-c2nc(N3CCOCC3)c3cnn(-c4ccccc4)c3n2)c1 [Compound 681, 2-(4-morpholin-4-yl-1-phenyl-1H-pyrazolo[3,4-d]pyrimidin-6-yl)pyridin-4-amine] | 1460 nM | > 60000 nM | – | > 60000 nM | – |
| COC(=O)Nc1ccc(-c2nc(N3CCOCC3)c3cnn(C4CCN(C(=O)c5ccccc5Cl)CC4)c3n2)cc1 [Compound 688, methyl (4-{1-[1-(2-chlorobenzoyl)piperidin-4-yl]-4-morpholin-4-yl-1H-pyrazolo[3,4-d]pyrimidin-6-yl}phenyl)carbamate] | 778 nM | 250 nM | – | 750 nM | – |
| COC(=O)Nc1ccc(-c2nc(N3CCOCC3)c3cnn(C4CCN(Cc5ccc(F)cc5)CC4)c3n2)cc1 [Compound 694, methyl (4-{1-[1-(4-fluorobenzyl)piperidin-4-yl]-4-morpholin-4-yl-1H-pyrazolo[3,4-d]pyrimidin-6-yl}phenyl)carbamate] | 750 nM | 1200 nM | – | 2600 nM | – |
| COC(=O)Nc1ccc(-c2nc(N3CCOCC3)c3cnn(C4CCN(Cc5ccc(Cl)cc5)CC4)c3n2)cc1 [Compound 695, methyl (4-{1-[1-(4-chlorobenzyl)piperidin-4-yl]-4-morpholin-4-yl-1H-pyrazolo[3,4-d]pyrimidin-6-yl}phenyl)carbamate] | 388 nM | 2000 nM | – | 9000 nM | – |
| CNC(=O)Nc1ccc(-c2nc(N3CCOCC3)c3cnn(C4CCN(CC(F)(F)F)CC4)c3n2)cc1 [Compound 714, 1-methyl-3-(4-{4-morpholin-4-yl-1-[1-(2,2,2-trifluoroethyl)piperidin-4-yl]-1H-pyrazolo[3,4-d]pyrimidin-6-yl}phenyl)urea] | 186 nM | 56 nM | – | 320 nM | – |
| CNC(=O)Nc1ccc(-c2nc(N3CCOCC3)c3cnn(C4CCN(C(=O)C(C)C)CC4)c3n2)cc1 [Compound 719, 1-{4-[1-(1-isobutyrylpiperidin-4-yl)-4-morpholin-4-yl-1H-pyrazolo[3,4-d]pyrimidin-6-yl]phenyl}-3-methylurea] | 148 nM | 150 nM | – | 250 nM | – |
| CNC(=O)Nc1ccc(-c2nc(N3CCOCC3)c3cnn(C4CCN(C(=O)NC)CC4)c3n2)cc1 [Compound 722, N-methyl-4-(6-{4-[(methylcarbamoyl)amino]phenyl}-4-morpholin-4-yl-1H-pyrazolo[3,4-d]pyrimidin-1-yl)piperidine-1-carboxamide] | 148 nM | 2200 nM | – | 1800 nM | – |
| CNC(=O)Nc1ccc(-c2nc(N3CCOCC3)c3cnn(C4CCN(C(=O)c5cccnc5)CC4)c3n2)cn1 [Compound 725, 1-methyl-3-(5-{4-morpholin-4-yl-1-[1-(pyridin-3-ylcarbonyl)piperidin-4-yl]-1H-pyrazolo[3,4-d]pyrimidin-6-yl}pyridin-2-yl)urea] | 42 nM | 800 nM | – | 1150 nM | – |
| CNC(=O)Nc1ccc(-c2nc(N3CCOCC3)c3cnn(CC(F)(F)F)c3n2)cc1 [Compound 729, 1-methyl-3-{4-[4-morpholin-4-yl-1-(2,2,2-trifluoroethyl)-1H-pyrazolo[3,4-d]pyrimidin-6-yl]phenyl}urea] | 194 nM | – | 225 nM | – | 600 nM |
| CNC(=O)Nc1ccc(-c2nc(N3CCOCC3)c3cnn(C4CCN(Cc5cccnc5)CC4)c3n2)cc1Cl [Compound 730, 1-(2-chloro-4-{4-morpholin-4-yl-1-[1-(pyridin-3-ylmethyl)piperidin-4-yl]-1H-pyrazolo[3,4-d]pyrimidin-6-yl}phenyl)-3-methylurea] | 364 nM | – | 420 nM | – | 1800 nM |

Further lines, with some results ahead:

| IC50 (PI3K) | IC50 (prostate line LNCap) | IC50 (prostate line LNCap; Homo sapiens, LNCaP, 72 h) | SMILES | IC50 (breast line MDA468) | IC50 (breast line MDA468; Homo sapiens, 72 h) |
| --- | --- | --- | --- | --- | --- |
| 100 nM | 80 nM | – | CNC(=O)Nc1ccc(-c2nc(N3CCOCC3)c3cnn(C4CCN(C(=O)c5cccnc5Cl)CC4)c3n2)cc1 [Compound 669, 1-[4-(1-{1-[(2-chloropyridin-3-yl)carbonyl]piperidin-4-yl}-4-morpholin-4-yl-1H-pyrazolo[3,4-d]pyrimidin-6-yl)phenyl]-3-methylurea] | 460 nM | – |
| 34 nM | < 27 nM | – | CNC(=O)Nc1ccc(-c2nc(N3CCOCC3)c3cnn(C4CCN(Cc5ccc(F)cc5)CC4)c3n2)cc1 [Compound 671, 1-(4-{1-[1-(4-fluorobenzyl)piperidin-4-yl]-4-morpholin-4-yl-1H-pyrazolo[3,4-d]pyrimidin-6-yl}phenyl)-3-methylurea] | 210 nM | – |
| 30 nM | 27 nM | – | CNC(=O)Nc1ccc(-c2nc(N3CCOCC3)c3cnn(C4CCN(Cc5cccc(F)c5)CC4)c3n2)cc1 [Compound 672, 1-(4-{1-[1-(3-fluorobenzyl)piperidin-4-yl]-4-morpholin-4-yl-1H-pyrazolo[3,4-d]pyrimidin-6-yl}phenyl)-3-methylurea] | 150 nM | – |
| 50 nM | 40 nM | – | CNC(=O)Nc1ccc(-c2nc(N3CCOCC3)c3cnn(C4CCN(Cc5ccccc5C)CC4)c3n2)cc1 [Compound 673, 1-methyl-3-(4-{1-[1-(2-methylbenzyl)piperidin-4-yl]-4-morpholin-4-yl-1H-pyrazolo[3,4-d]pyrimidin-6-yl}phenyl)urea] | 180 nM | – |
| 42 nM | 52 nM | – | CNC(=O)Nc1ccc(-c2nc(N3CCOCC3)c3cnn(C4CCN(Cc5cccc(C)c5)CC4)c3n2)cc1 [Compound 674, 1-methyl-3-(4-{1-[1-(3-methylbenzyl)piperidin-4-yl]-4-morpholin-4-yl-1H-pyrazolo[3,4-d]pyrimidin-6-yl}phenyl)urea] | 190 nM | – |
| 6660 nM | 39000 nM | – | Nc1ccnc(-c2nc(N3CCOCC3)c3cnn(C4CCN(C(=O)c5cccnc5)CC4)c3n2)c1 [Compound 678, 2-{4-morpholin-4-yl-1-[1-(pyridin-3-ylcarbonyl)piperidin-4-yl]-1H-pyrazolo[3,4-d]pyrimidin-6-yl}pyridin-4-amine] | > 60000 nM | – |
| 1920 nM | 200 nM | – | COC(=O)Nc1ccc(-c2nc(N3CCOCC3)c3cnn(C4CCN(C(=O)c5ccccn5)CC4)c3n2)cc1 [Compound 685, methyl (4-{4-morpholin-4-yl-1-[1-(pyridin-2-ylcarbonyl)piperidin-4-yl]-1H-pyrazolo[3,4-d]pyrimidin-6-yl}phenyl)carbamate] | 580 nM | – |
| 1140 nM | 250 nM | – | COC(=O)Nc1ccc(-c2nc(N3CCOCC3)c3cnn(C4CCN(C(=O)c5ccccc5F)CC4)c3n2)cc1 [Compound 687, methyl (4-{1-[1-(2-fluorobenzoyl)piperidin-4-yl]-4-morpholin-4-yl-1H-pyrazolo[3,4-d]pyrimidin-6-yl}phenyl)carbamate] | 480 nM | – |
| 224 nM | 800 nM | – | CNC(=O)Nc1ccc(-c2nc(N3CCOCC3)c3cnn(C4CCN(C(C)=O)CC4)c3n2)cc1 [Compound 716, 1-{4-[1-(1-acetylpiperidin-4-yl)-4-morpholin-4-yl-1H-pyrazolo[3,4-d]pyrimidin-6-yl]phenyl}-3-methylurea] | 1200 nM | – |
| 209 nM | 200 nM | – | CNC(=O)Nc1ccc(-c2nc(N3CCOCC3)c3cnn(C4CCN(C(=O)N(C)C)CC4)c3n2)cc1 [Compound 717, N,N-dimethyl-4-(6-{4-[(methylcarbamoyl)amino]phenyl}-4-morpholin-4-yl-1H-pyrazolo[3,4-d]pyrimidin-1-yl)piperidine-1-carboxamide] | 480 nM | – |
| 98 nM | – | 2700 nM | C[C@H]1COCCN1c1nc(-c2cccc(O)c2)nc2c1cnn2-c1ccccc1 [Compound 726, 3-{4-[(3S)-3-methylmorpholin-4-yl]-1-phenyl-1H-pyrazolo[3,4-d]pyrimidin-6-yl}phenol] | – | 8000 nM |
| 11000 nM | – | 55000 nM | O=C1COCCN1c1nc(-c2cccc(O)c2)nc2c1cnn2-c1ccccc1 [Compound 727, 4-[6-(3-hydroxyphenyl)-1-phenyl-1H-pyrazolo[3,4-d]pyrimidin-4-yl]morpholin-3-one] | – | > 60000 nM |
| 40 nM | – | 240 nM | Oc1cccc(-c2nc(N3CCOCC3)c3cnn(CC(F)(F)F)c3n2)c1 [Compound 728, 3-[4-morpholin-4-yl-1-(2,2,2-trifluoroethyl)-1H-pyrazolo[3,4-d]pyrimidin-6-yl]phenol] | – | 745 nM |
